Test results taken from patent US20080318977A1, “Condensed Pyridines as Kinase Inhibitors” (Palau Pharma, S.A., priority 2004, published 2008).

Target: T1, p38α (Homo sapiens, UniProt Q16539)
T1 construct: GST-tagged fusion protein corresponding to full-length human p38α; purchased Upstate 14-251; host or cells: E. coli
Assay: Inhibition of p38α enzyme activity (IMAP fluorescence polarisation kinase assay)
Assay type: biochemical
Details: at 1 μM compound; ATP 20 μM; 2 h at RT
Experimental: Inhibition of p38α Enzyme Activity:
Compound stocks in 100% DMSO are first diluted in DMSO to a concentration of 1×10^−3 up to 3.2×10^−8 M and then further diluted in kinase assay buffer (10 mM Tris-HCl, pH 7.2, 10 mM MgCl2, 0.01% tween 20, 0.05% NaN3, 1 mM dithiothreitol) to a concentration range of 4×10^−5 up to 1.3×10^−9 M. Of each compound solution 5 μL is transferred into a 384-wells black Optiplate (Packard, 6007279), followed by the addition of 5 μL of ATP (Boehringer, 519987), 5 μL of Fluorescein-labeled EGFR (Epidermal Growth Factor Receptor) peptide substrate and 5 μL of active p38 cc kinase (GST-tagged fusion protein corresponding to full-length human p38α; expressed in E. coli by Upstate, 14-251), all diluted in kinase assay buffer (see final concentrations in Table 1). The mixture is incubated for 2 h at room temperature (RT). The reaction is stopped by the addition of 60 μL of IMAP binding reagent, which has been diluted 400-fold in IMAP binding buffer (stock concentration 5 times diluted in Milli Q). After incubation for 30 min at RT, FP is measured on an Analyst™ multimode fluorescence plate reader (Molecular Devices) at excitation wavelength of 485 nm and emission wavelength of 530 nm (1 sec/well).
Data handling is performed as follows: percentage effects are calculated based on no-p38-enzyme-addition as the maximum inhibitory effect and with p38 enzyme addition as the minimum inhibitory effect. In each experiment, individual compound concentrations are tested in duplicate and percentage effect is calculated for each concentration.

T1 sequence (Q16539 whole entry, the tested form may be a part): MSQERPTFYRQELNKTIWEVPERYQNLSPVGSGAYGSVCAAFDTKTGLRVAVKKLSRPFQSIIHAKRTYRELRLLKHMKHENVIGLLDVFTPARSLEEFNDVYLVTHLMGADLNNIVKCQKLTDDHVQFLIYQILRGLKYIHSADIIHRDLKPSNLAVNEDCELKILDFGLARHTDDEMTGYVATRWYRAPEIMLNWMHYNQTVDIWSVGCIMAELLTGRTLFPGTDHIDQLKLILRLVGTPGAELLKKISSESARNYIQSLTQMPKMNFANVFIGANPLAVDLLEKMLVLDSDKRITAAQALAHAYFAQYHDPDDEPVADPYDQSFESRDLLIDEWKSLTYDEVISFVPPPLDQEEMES

inhibition at 1 µM | SMILES
> 50% | CCCNC(=O)c1cc2nc(-c3ccc(F)cc3)c(-c3ccncc3)c(-c3ccc(F)cc3)c2n1C [Example 29, 5,7-Bis-(4-fluoro-phenyl)-1-methyl-6-pyridin-4-yl-1H-pyrrolo[3,2-b]pyridine-2-carboxylic acid propylamide]
> 50% | Cn1c(C(=O)NCCN2CCCCC2)cc2nc(-c3ccc(F)cc3)c(-c3ccncc3)c(-c3ccc(F)cc3)c21 [Example 31, 5,7-Bis-(4-fluoro-phenyl)-1-methyl-6-pyridin-4-yl-1H-pyrrolo[3,2-b]pyridine-2-carboxylic acid (2-piperidin-1-yl-ethyl)-amide]
> 50% | Cn1c(C(=O)N2CCOCC2)cc2nc(-c3ccc(F)cc3)c(-c3ccncc3)c(-c3ccc(F)cc3)c21 [Example 14, [5,7-Bis(4-fluorophenyl)-1-methyl-6-(4-pyridyl)pyrrolo[3,2-b]pyridin-2-yl]morpholin-4-ylmethanone]
> 50% | COC(=O)CNCc1cc2nc(-c3ccc(F)cc3)c(-c3ccncc3)c(-c3ccc(F)cc3)c2n1C [Example 34, {[5,7-Bis-(4-fluoro-phenyl)-1-methyl-6-pyridin-4-yl-1H-pyrrolo[3,2-b]pyridin-2-ylmethyl]-amino}-acetic acid methyl ester]
> 50% | O=C(NCCO)c1n[nH]c2c(-c3ccc(F)cc3)c(-c3ccncc3)c(-c3ccc(F)cc3)nc12 [Example 54, 5,7-Bis-(4-fluoro-phenyl)-6-pyridin-4-yl-1H-pyrazolo[4,3-b]pyridine-3-carboxylic acid (2-hydroxy-ethyl)-amide]
> 50% | Cn1c(CO)nc2nc(-c3ccc(F)cc3)c(-c3ccncc3)c(-c3ccc(F)cc3)c21 [Example 7, [5,7-Bis(4-fluorophenyl)-1-methyl-6-(4-pyridyl)imidazo[4,5-b]pyridin-2-yl]methanol]
> 50% | Cn1c(C(C)(C)O)nc2nc(-c3ccc(F)cc3)c(-c3ccncc3)c(-c3ccc(F)cc3)c21 [Example 18, 2-[5,7-Bis(4-fluorophenyl)-1-methyl-6-(4-pyridyl)imidazo[4,5-b]pyridin-2-yl]propan-2-ol]
> 50% | Cc1nc2cc(-c3ccnc(NCC4CC4)n3)c(-c3ccc(F)cc3)nc2s1 [Example 52, Cyclopropylmethyl-{4-[5-(4-fluoro-phenyl)-2-methyl-thiazolo[5,4-b]pyridin-6-yl]-pyrimidin-2-yl}-amine]
> 50% | COCCNC(=O)c1cc2nc(-c3ccc(F)cc3)c(-c3ccncc3)c(-c3ccc(F)cc3)c2n1C [Example 28, 5,7-Bis-(4-fluoro-phenyl)-1-methyl-6-pyridin-4-yl-1H-pyrrolo[3,2-b]pyridine-2-carboxylic acid (2-methoxy-ethyl)-amide]
> 50% | CC(=O)c1cc2nc(-c3ccc(F)cc3)c(-c3ccncc3)c(-c3ccc(F)cc3)c2n1C [Example 21, 1-[5,7-Bis(4-fluorophenyl)-1-methyl-6-(4-pyridyl)pyrrolo[3,2-b]pyridin-2-yl]ethanone]
> 50% | CCOC(=O)c1nc2nc(-c3ccc(F)cc3)c(-c3ccncc3)c(-c3ccc(F)cc3)c2n1C [Example 5, Ethyl 5,7-bis(4-fluorophenyl)-1-methyl-6-(4-pyridyl)imidazo[4,5-b]pyridine-2-carboxylate]
> 50% | Fc1ccc(-c2nc3cn[nH]c3c(-c3ccc(F)cc3)c2-c2ccncc2)cc1 [Example 53, 5,7-Bis-(4-fluoro-phenyl)-6-pyridin-4-yl-1H-pyrazolo[4,3-b]pyridine]
> 50% | Cc1noc2nc(-c3ccc(F)cc3)c(-c3ccnc(NCC4CC4)n3)cc12 [Example 40, Cyclopropylmethyl-{4-[6-(4-fluoro-phenyl)-3-methyl-isoxazolo[5,4-b]pyridin-5-yl]-pyrimidin-2-yl}-amine]
> 50% | Cc1nsc2nc(-c3ccc(F)cc3)c(-c3ccnc(NCC4CC4)n3)cc12 [Example 43, Cyclopropylmethyl-{4-[6-(4-fluoro-phenyl)-3-methyl-isothiazolo[5,4-b]pyridin-5-yl]-pyrimidin-2-yl}-amine]
> 50% | Cc1noc2nc(-c3ccc(F)cc3)c(-c3ccnc(N[C@@H](C)c4ccccc4)n3)cc12 [Example 42, (S)-{4-[6-(4-Fluoro-phenyl)-3-methyl-isoxazolo[5,4-b]pyridin-5-yl]-pyrimidin-2-yl}-(1-phenyl-ethyl)-amine]
> 50% | CC(=O)c1nc2nc(-c3ccc(F)cc3)c(-c3ccncc3)c(-c3ccc(F)cc3)c2n1C [Example 19, 1-[5,7-Bis(4-fluorophenyl)-1-methyl-6-(4-pyridyl)imidazo[4,5-b]pyridin-2-yl]ethanone]

inhibition at 1 µM | SMILES
> 50% | COCCNCc1cc2nc(-c3ccc(F)cc3)c(-c3ccncc3)c(-c3ccc(F)cc3)c2n1C [Example 32, [5,7-Bis-(4-fluoro-phenyl)-1-methyl-6-pyridin-4-yl-1H-pyrrolo[3,2-b]pyridin-2-ylmethyl]-(2-methoxy-ethyl)-amine]
> 50% | Cn1c(C(N)=O)cc2nc(-c3ccc(F)cc3)c(-c3ccncc3)c(-c3ccc(F)cc3)c21 [Example 12, 5,7-Bis(4-fluorophenyl)-1-methyl-6-(4-pyridyl)pyrrolo[3,2-b]pyridine-2-carboxamide]
> 50% | CCN(CC(=O)OC)Cc1cc2nc(-c3ccc(F)cc3)c(-c3ccncc3)c(-c3ccc(F)cc3)c2n1C [Example 35, {[5,7-Bis-(4-fluoro-phenyl)-1-methyl-6-pyridin-4-yl-1H-pyrrolo[3,2-b]pyridin-2-ylmethyl]-N-ethyl-amino}-acetic acid methyl ester]
> 50% | Cn1c(CNCC2CC2)cc2nc(-c3ccc(F)cc3)c(-c3ccncc3)c(-c3ccc(F)cc3)c21 [Example 33, [5,7-Bis-(4-fluoro-phenyl)-1-methyl-6-pyridin-4-yl-1H-pyrrolo[3,2-b]pyridin-2-ylmethyl]-cyclopropylmethyl-amine]
> 50% | COC(=O)c1cc2nc(-c3ccc(F)cc3)c(-c3ccncc3)c(-c3ccc(F)cc3)c2n1C [Example 3, Methyl 5,7-bis(4-fluorophenyl)-1-methyl-6-(4-pyridyl)pyrrolo[3,2-b]pyridine-2-carboxylate]
> 50% | COC(=O)c1cc2c(-c3ccc(F)cc3)c(-c3ccncc3)c(-c3ccc(F)cc3)nc2o1 [Example 2, Methyl 4,6-bis(4-fluorophenyl)-5-(4-pyridyl)furo[2,3-b]pyridine-2-carboxylate]
> 50% | O=C(NCCO)c1cc2c(-c3ccc(F)cc3)c(-c3ccncc3)c(-c3ccc(F)cc3)nc2o1 [Example 27, 4,6-Bis-(4-fluoro-phenyl)-5-pyridin-4-yl-furo[2,3-b]pyridine-2-carboxylic acid (2-hydroxy-ethyl)-amide]
> 50% | Cn1cnc2nc(-c3ccc(F)cc3)c(-c3ccncc3)c(-c3ccc(F)cc3)c21 [Example 10, 5,7-Bis(4-fluorophenyl)-1-methyl-6-(4-pyridyl)imidazo[4,5-b]pyridine]
> 50% | COc1ccc(-c2nc3cc[nH]c3cc2-c2ccnc(NCC3CC3)n2)cc1 [Example 46, Cyclopropylmethyl-{4-[5-(4-methoxy-phenyl)-1H-pyrrolo[3,2-b]pyridin-6-yl]-pyrimidin-2-yl}-amine]
> 50% | Cn1c(C(C)(C)O)cc2nc(-c3ccc(F)cc3)c(-c3ccncc3)c(-c3ccc(F)cc3)c21 [Example 20, 2-[5,7-Bis(4-fluorophenyl)-1-methyl-6-(4-pyridyl)pyrrolo[3,2-b]pyridin-2-yl]propan-2-ol]
> 50% | COC(=O)c1n[nH]c2c(-c3ccc(F)cc3)c(-c3ccncc3)c(-c3ccc(F)cc3)nc12 [Example 39, 5,7-Bis-(4-fluoro-phenyl)-6-pyridin-4-yl-1H-pyrazolo[4,3-b]pyridine-3-carboxylic acid methyl ester]
> 50% | CC(C)(O)c1cc2c(-c3ccc(F)cc3)c(-c3ccncc3)c(-c3ccc(F)cc3)nc2o1 [Example 16, 2-[4,6-Bis-(4-fluorophenyl)-5-(4-pyridyl)furo[2,3-b]pyridin-2-yl]propan-2-ol]
> 50% | Cn1ccc2nc(-c3ccc(F)cc3)c(-c3ccncc3)c(-c3ccc(F)cc3)c21 [Example 37, 5,7-Bis-(4-fluoro-phenyl)-1-methyl-6-pyridin-4-yl-1H-pyrrolo[3,2-b]pyridine]
> 50% | Cc1nsc2nc(-c3ccc(F)cc3)c(-c3ccnc(N[C@@H](C)c4ccccc4)n3)cc12 [Example 45, (S)-{4-[6-(4-Fluoro-phenyl)-3-methyl-isothiazolo[5,4-b]pyridin-5-yl]-pyrimidin-2-yl}-(1-phenyl-ethyl)-amine]
> 50% | Cn1c(C(=O)NCCN2CCOCC2)cc2nc(-c3ccc(F)cc3)c(-c3ccncc3)c(-c3ccc(F)cc3)c21 [Example 30, 5,7-Bis-(4-fluoro-phenyl)-1-methyl-6-pyridin-4-yl-1H-pyrrolo[3,2-b]pyridine-2-carboxylic acid (2-morpholin-4-yl-ethyl)-amide]
